Assay results published in PubChem BioAssay (NCI).
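Where inhibition never reached the appropriate level, the endpoint shown equals the highest concentration tested. Otherwise, values were interpolated linearly from a five-concentration, 48-hour dose response in 96-well plates. TGI: concentration producing complete growth inhibition.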

Legend:
Test in all cases: NCI-60 cell line screen, 48 h
[1] = system: 786-0 renal
[2] = system: A498 renal
[3] = system: A549 NSCLC
[4] = system: ACHN renal
[5] = system: BT-549 breast
[6] = system: CAKI-1 renal
[7] = system: CCRF-CEM leukemia
[8] = system: COLO 205 colon
[9] = system: DU-145 prostate
[10] = system: EKVX NSCLC
[11] = system: HCT-116 colon
[12] = system: HCT-15 colon
[13] = system: HL-60(TB) leukemia
[14] = system: HOP-62 NSCLC
[15] = system: HOP-92 NSCLC
[16] = system: HS 578T breast
[17] = system: HT29 colon
[18] = system: IGROV1 ovarian
[19] = system: K-562 leukemia
[20] = system: KM12 colon
[21] = system: LOX IMVI melanoma
[22] = system: M14 melanoma
[23] = system: MALME-3M melanoma
[24] = system: MCF7 breast
[25] = system: MDA-MB-231 breast
[26] = system: MDA-MB-435
[27] = system: MDA-N
[28] = system: MOLT-4 leukemia
[29] = system: NCI-H226 lung
[30] = system: NCI-H23 lung
[31] = system: NCI-H460 lung
[32] = system: NCI-H522 lung
[33] = system: NCI/ADR-RES ovarian
[34] = system: OVCAR-3 ovarian
[35] = system: OVCAR-4 ovarian
[36] = system: OVCAR-5 ovarian
[37] = system: OVCAR-8 ovarian
[38] = system: PC-3 prostate
[39] = system: RPMI-8226 leukemia
[40] = system: RXF 393 renal
[41] = system: SF-268 CNS
[42] = system: SF-295 CNS
[43] = system: SF-539 CNS
[44] = system: SK-MEL-2 melanoma
[45] = system: SK-MEL-28 melanoma
[46] = system: SK-MEL-5 melanoma
[47] = system: SK-OV-3 ovarian
[48] = system: SN12C renal
[49] = system: SNB-19 CNS
[50] = system: SNB-75 CNS
[51] = system: SR leukemia
[52] = system: SW-620 colon
[53] = system: T-47D breast
[54] = system: TK-10 renal
[55] = system: U251 CNS
[56] = system: UACC-257 melanoma
[57] = system: UACC-62 melanoma
[58] = system: UO-31 renal
[59] = system: HCC-2998 colon

## CCOC(=O)C1=C(O)C2C3CC4C2C(O)=C(C(=O)OCC)C2C1C3C42 (stereo not given)
[1]
  TGI: > 100 µM
[2]
  TGI: > 100 µM
[3]
  TGI: > 100 µM
[4]
  TGI: > 100 µM
[5]
  TGI: > 100 µM
[6]
  TGI: > 100 µM
[7]
  TGI: > 100 µM
[8]
  TGI: > 100 µM
[9]
  TGI: > 100 µM
[10]
  TGI: > 100 µM
[11]
  TGI: > 100 µM
[12]
  TGI: > 100 µM
[13]
  TGI: > 100 µM
[14]
  TGI: > 100 µM
[15]
  TGI: > 100 µM
[16]
  TGI: > 100 µM
[17]
  TGI: > 100 µM
[18]
  TGI: > 100 µM
[19]
  TGI: > 100 µM
[20]
  TGI: > 100 µM
[21]
  TGI: > 100 µM
[22]
  TGI: > 100 µM
[23]
  TGI: > 100 µM
[24]
  TGI: > 100 µM
[25]
  TGI: > 100 µM
[26]
  TGI: > 100 µM
[27]
  TGI: > 100 µM
[28]
  TGI: > 100 µM
[29]
  TGI: > 100 µM
[30]
  TGI: > 100 µM
[31]
  TGI: > 100 µM
[32]
  TGI: > 100 µM
[33]
  TGI: 35.2 µM
[34]
  TGI: > 100 µM
[35]
  TGI: > 100 µM
[36]
  TGI: > 100 µM
[37]
  TGI: > 100 µM
[38]
  TGI: > 100 µM
[39]
  TGI: > 100 µM
[40]
  TGI: > 100 µM
[41]
  TGI: > 100 µM
[42]
  TGI: > 100 µM
[43]
  TGI: > 100 µM
[44]
  TGI: > 100 µM
[45]
  TGI: > 100 µM
[46]
  TGI: > 100 µM
[47]
  TGI: > 100 µM
[48]
  TGI: > 100 µM
[49]
  TGI: > 100 µM
[50]
  TGI: > 100 µM
[51]
  TGI: > 100 µM
[52]
  TGI: > 100 µM
[53]
  TGI: > 100 µM
[54]
  TGI: > 100 µM
[55]
  TGI: > 100 µM
[56]
  TGI: > 100 µM
[57]
  TGI: > 100 µM
[58]
  TGI: > 100 µM

## CC[C@@]1(O)C(=O)OCc2c1cc1n(c2=O)Cc2c-1nc1ccccc1c2/C=N\NC(=O)C1CCCN1 (stereo not given in full)
[1]
  TGI: 8.01 µM
[2]
  TGI: 2.58 µM
[3]
  TGI: > 100 µM
[4]
  TGI: 1.02 µM
[5]
  TGI: > 100 µM
[6]
  TGI: > 23.5 µM
[7]
  TGI: > 100 µM
[8]
  TGI: > 100 µM
[9]
  TGI: > 100 µM
[10]
  TGI: > 100 µM
[59]
  TGI: > 53.7 µM
[11]
  TGI: 21.2 µM
[12]
  TGI: > 61.9 µM
[13]
  TGI: > 100 µM
[14]
  TGI: 2.16 µM
[15]
  TGI: 21.2 µM
[16]
  TGI: > 100 µM
[17]
  TGI: > 100 µM
[18]
  TGI: > 96.6 µM
[19]
  TGI: > 100 µM
[20]
  TGI: > 44.6 µM
[21]
  TGI: 2.67 µM
[22]
  TGI: 5.81 µM
[23]
  TGI: > 89.4 µM
[24]
  TGI: 18.4 µM
[25]
  TGI: > 100 µM
[26]
  TGI: > 100 µM
[27]
  TGI: > 100 µM
[29]
  TGI: 2.8 µM
[30]
  TGI: 0.965 µM
[31]
  TGI: 10.5 µM
[33]
  TGI: 20.5 µM
[34]
  TGI: 43.5 µM
[35]
  TGI: > 100 µM
[36]
  TGI: > 73.2 µM
[37]
  TGI: 10.9 µM
[38]
  TGI: > 100 µM
[39]
  TGI: > 59.7 µM
[40]
  TGI: 2.1 µM
[41]
  TGI: 3.96 µM
[42]
  TGI: 18.6 µM
[43]
  TGI: 0.318 µM
[44]
  TGI: 58.4 µM
[45]
  TGI: > 100 µM
[46]
  TGI: 2.25 µM
[47]
  TGI: > 100 µM
[48]
  TGI: > 48.2 µM
[49]
  TGI: 2.5 µM
[50]
  TGI: 1.8 µM
[51]
  TGI: 1.73 µM
[52]
  TGI: > 73.8 µM
[53]
  TGI: > 100 µM
[54]
  TGI: > 100 µM
[55]
  TGI: 11.2 µM
[56]
  TGI: > 95.4 µM
[57]
  TGI: 0.653 µM
[58]
  TGI: 8.27 µM
